Common to all, as to type: cell-based, human
In series [1] the test system is hiPSC-derived NSCs undergoing differentiation. As to the kind of experiment: Neurite outgrowth by immunocytochemistry and high content imaging (β-III-tubulin). The settings on record: 14 days. On the procedure:
After 14 days of treatment with CPF at the nominal concentrations of 18.45, 21.21, 24.39, 28.05, 32.26, and 37.10 μM (37.10 μM equal to IC20), obtained considering a 1-to-1.15 dilution factor, cells were fixed with 4 % formaldehyde for 10 min and washed three times in PBS 1 × . After 15 min permeabilization with PBS 1X containing 0.1 % Triton-X-100 and 3,5 % bovine serum albumin (BSA), cells were further incubated with 3,5 % BSA and 1X PBS (blocking solution) for 15 min, to prevent nonspecific binding of antibodies, and then incubated at 4 °C overnight with primary antibodies in blocking solution. For synaptogenesis analysis, cells were stained with microtubule-associated protein-2 (MAP2, chicken, 1:3000, Abcam), synaptophysin (pre-synaptic marker) (SYP, rabbit, 1:300, Abcam), and post-synaptic density protein 95 (PSD95, mouse, 1:300, Abcam) specific antibodies. Neurite outgrowth and BDNF protein levels were assessed by staining the cells with an antibody specific for β-III-tubulin (mouse, 1:500, ThermoFisher), and one for BDNF (rabbit, 1:70, ThermoFisher). Cells were also stained for glial fibrillary acidic protein (GFAP, chicken, 1:500, Abcam). The following day, cells were washed three times with PBS 1X and incubated for 1 h at room temperature in the dark with DyLight-conjugated secondary antibodies (1:500, Abcam) and nuclei counterstained with 1 μg/mL DAPI (ThermoFisher). Mean fluorescence intensity and the relative percentages of immunocytochemically-defined cell types were quantified using the ArrayScan™ XTI High Content Platform (Cellomics) (ThermoFisher) and the ArrayScan algorithm 'Neuronal Profiling V4.1', as previously described. This algorithm applies a specific nucleus mask around the DAPI stained nucleus, distinguishing between live and pyknotic/dead cells, a cell body mask around the cell type antibody/antigen staining (i.e., MAP2, β-III-tubulin, or GFAP). Other masks were applied to identify the neurites, their branch points, and the fluorescence intensity levels of SYP and PSD95 puncta, or BDNF protein. […]

For series [2] the test system is unchanged. As to the kind of experiment: Synaptogenesis by immunocytochemistry and HCI (overlapping SYP+/PSD95+ puncta). The settings on record: 14 days, concentrations ≤ IC20. The procedure: After 14 days of treatment with CPF at the nominal concentrations of 18.45, 21.21, 24.39, 28.05, 32.26, and 37.10 μM (37.10 μM equal to IC20), obtained considering a 1-to-1.15 dilution factor, cells were fixed with 4 % formaldehyde for 10 min and washed three times in PBS 1 × . After 15 min permeabilization with PBS 1X containing 0.1 % Triton-X-100 and 3,5 % bovine serum albumin (BSA), cells were further incubated with 3,5 % BSA and 1X PBS (blocking solution) for 15 min, to prevent nonspecific binding of antibodies, and then incubated at 4 °C overnight with primary antibodies in blocking solution. […] Neurite outgrowth and BDNF protein levels were assessed by staining the cells with an antibody specific for β-III-tubulin (mouse, 1:500, ThermoFisher), and one for BDNF (rabbit, 1:70, ThermoFisher). […] Mean fluorescence intensity and the relative percentages of immunocytochemically-defined cell types were quantified using the ArrayScan™ XTI High Content Platform (Cellomics) (ThermoFisher) and the ArrayScan algorithm 'Neuronal Profiling V4.1', as previously described. […] Other masks were applied to identify the neurites, their branch points, and the fluorescence intensity levels of SYP and PSD95 puncta, or BDNF protein. […]

Series [3] shares this test system. As to the kind of experiment: Spontaneous electrical activity by multi-well MEA. On the procedure: Cells were plated in complete ND medium onto polyethyleneimine (PEI)- and laminin-coated 24-well-MEA plates (24-Well Plate Glass (24W300/30G-288) V.232, 12 gold microelectrodes/well) (MultiChannel Systems) (5 × 10^5 cells/well), and on day 7 of differentiation cells were treated with CPF at 21 μM or solvent control (0.1 % DMSO) for 14 days. Electrical activity was evaluated before adding CPF (0d) or solvent control, and monitored after 3, 7, 10 and 14 days of treatment (Fig. 2). Representative electrode recordings were considered for the analysis of spike rate (number of spikes/sec), burst count (considering a burst as a train of at least 5 spikes occurring within 100 millisec), and network burst count (the number of bursts that resulted synchronized among all 12 electrodes). Electrical activity was recorded using the Multi-well MEA-System, considering a sampling rate of 20,000 Hz, a low-pass filter cutoff frequency of 3500 Hz, and a high-pass filter cutoff frequency of 100 Hz. Data represent the average of at least three biological replicates.

[4] abbreviates: 21 μM (IC5), significant after 7-day treatment.

The text below walks through data of paper PMC7772889, “Integrating biokinetics and in vitro studies to evaluate developmental neurotoxicity induced by chlorpyrifos in human iPSC-derived neural stem cells undergoing differentiation towards neuronal and glial cells” (Reproductive Toxicology (Elmsford, N.y.), 2020).

With `CCOP(=S)(OCC)Oc1nc(Cl)c(Cl)cc1Cl` [CPF, Chlorpyrifos], in series [1] (concentrations ≤ IC20), the length of neurites entry was “not significantly affected” and the “number of branch points/neurite (neurite complexity)” value is recorded as “lower number of branch points/neurite”. Further, the number of neurites/neuron result in series [1] (concentrations ≤ IC20 (18.45-37.10 μM)) is “concentration dependent decrease”. The “number of synapses (co-localization of SYP+/PSD95+ puncta)” value in series [2] is on record as “remarkable dose-dependent decrease”. Also, in series [3] (setting [4]), the number of bursts result was “modest decrease” and the spike rate entry is “modest decrease”. In addition, the “number of synchronized network bursts” value in series [3] (21 μM, starting from the 10th day of treatment) is “decrease”.
